These results are taken from a melting point compilation (Tetko et al.).

Starred links: 1 amine or outer side, 2 acyl side, 3 side chain; linkers in the order of their positions; H or OH if unused. Positions of bridges follow the written chain, without caps; N, C: chain ends. Non-standard residues stand in square brackets, D forms with d. Residues, ends and D or L forms follow the SMILES beside them. X7 = CCC(C)C(N[*:1])C(O)CC(=O)OC(C(C)C)C(O)C(C)C(=O)[*:2]; NMeY = CN[CH](Cc1ccc(O)cc1)C(=O)O; NMeL = CN[CH](CC(C)C)C(=O)O

In general, melting point refers to the temperature, or range, at which the solid turns liquid. `O=C(Cc1cc(I)c(Oc2cc(I)c(OCC3CO3)c(I)c2)c(I)c1)OCC1CO1` (centres undefined) had a melting point of 116 °C.

Turning to `CC(C)CC(NC(=O)OCc1ccccc1)C(=O)NC(C)C(=O)NC(CCCN(C(=N)NC(=O)OCc1ccccc1)C(=O)OCc1ccccc1)C(=O)Oc1cccc2ccccc12` (centres undefined), the melting point is 179 to 183 °C.

`CCCCCCCCCCOc1c(-c2nc3ccccc3s2)sc(-c2sc(-c3nc4ccccc4s3)c(OCCCCCCCCCC)c2OCCCCCCCCCC)c1OCCCCCCCCCC` had a melting point of 93.9 to 95 °C.

Consider `CCc1cn(C2OC(CNC(=O)C(C)Oc3cc(OC)c(Br)cc3Br)C(OC(=O)C(NC(=O)OC(C)(C)C)C(C)C)C2F)c(=O)[nH]c1=O` (centres undefined), for which the melting point is 101 to 111 °C.

Consider `CCc1c(CCNC(=O)CCC(=O)CCC(=O)NCCc2ccc(OCc3ccccc3)c(OCc3ccccc3)c2CC)ccc(OCc2ccccc2)c1OCc1ccccc1`, for which the melting point lay in the range of 188 to 192 °C.

`CS(C)(=O)=NC(=O)c1cc(O)ccc1[N+](=O)[O-]` had a melting point of 146 to 149 °C.

In the case of `CC(C)[C@H](NC(=O)N1CCN(Cc2ccccc2)CC1)C(=O)N[C@@H](Cc1ccccc1)[C@@H](O)[C@H](O)[C@H](Cc1ccccc1)NC(=O)[C@@H](NC(=O)N1CCN(Cc2ccccc2)CC1)C(C)C`, the melting point was 178 to 179 °C.

Take `CCCCCCCCCCCCCCCCCCOc1cc(OCCCCCc2cccc(OCc3ccccc3)c2OCc2ccccc2)cc(N(CC(=O)O)CC(=O)O)c1`: the melting point lay within 79 to 81 °C.

`CC(=O)OCC1OC(OC2C(COC(C)=O)OC(OC3C(COC(C)=O)OC(OCCBr)C(N4C(=O)c5ccccc5C4=O)C3OC(C)=O)C(OC(C)=O)C2OC(C)=O)C(OC(C)=O)C(OC(C)=O)C1OC(C)=O` (centres undefined): the melting point lay within 227 to 229 °C.

In turn, `COc1cc(OC)c(/C=C/C(c2ccc(OC)c(NC(=O)CO)c2)S(=O)(=O)C(/C=C/c2c(OC)cc(OC)cc2OC)c2ccc(OC)c(NC(=O)CO)c2)c(OC)c1` (centres undefined) displayed a melting point of 174 to 176 °C.

Molecule `COc1ccccc1C(=C/C=C/C(=O)O)c1ccccc1OC` had a melting point of 196 to 197 °C.

As for `FC(F)(F)C(F)(F)C(F)(F)C(F)(F)C(F)(F)C(F)(F)C(F)(F)C(F)(F)C(F)(F)C(F)(F)CC[Si](Br)(CCC(F)(F)C(F)(F)C(F)(F)C(F)(F)C(F)(F)C(F)(F)C(F)(F)C(F)(F)C(F)(F)C(F)(F)F)CCC(F)(F)C(F)(F)C(F)(F)C(F)(F)C(F)(F)C(F)(F)C(F)(F)C(F)(F)C(F)(F)C(F)(F)F`, the melting point was 80 to 81 °C.

As for `CC(C)[C@H](NC(=O)N(C)Cc1csc(N)n1)C(=O)N[C@@H](Cc1ccccc1)[C@H](O)[C@@H](O)[C@H](Cc1ccccc1)NC(=O)[C@@H](NC(=O)N(C)Cc1nccs1)C(C)C`, the melting point was 108 to 111 °C.

Regarding `COc1ccc(Br)cc1S(=O)(=O)Nc1onc(C)c1Br`, the melting point lay within 192 to 195 °C.

In turn, `CC(=O)OCC(CNC(=O)c1c(I)c(C(=O)NCC(COC(C)=O)OC(C)=O)c(I)c(N2CCCC2=O)c1I)OC(C)=O` (centres undefined) yielded a melting point of 130 to 133 °C.

`CC(=O)Nc1cc(C(=O)NC2OC(COC(C)=O)C(OC3OC(COC(C)=O)C(OC(C)=O)C(OC(C)=O)C3OC(C)=O)C(OC(C)=O)C2OC(C)=O)ccc1Cl` (centres undefined) gave a melting point of 122 to 124 °C.

`COc1cccc(-c2cc3ncnc(Nc4ccc5[nH]ccc5c4)c3s2)c1` had a melting point of 160 to 168 °C.

For the molecule `C=C1C(n2ccc(NC(=O)CCCCCCCCCCCCCCCCC)nc2=O)OC(COC(=O)CCCCCCCCCCCCCCCCC)C1(O)C(=O)CCCCCCCCCCCCCCCCC` (centres undefined), the melting point lay in the range of 92 to 96 °C.

Molecule `Cc1c(Cc2ccccc2)sc2nc(N)[nH]c(=O)c12` gave a melting point of 292 to 294 °C.

Take `C=CC1=C(C)c2cc3[nH]c(cc4nc(cc5[nH]c(cc1n2)c(C)c5CCC(=O)OCCCCCCN(C)C)C(CCC(=O)OCCCCCCN(C)C)=C4C)c(C)c3C=C`: the melting point was 160 to 165 °C.

For `COc1cc(OC)c(/C=C/C(c2ccc(OC)c(NC(=O)C(C)(C)OC(C)=O)c2)S(=O)(=O)C(/C=C/c2c(OC)cc(OC)cc2OC)c2ccc(OC)c(NC(=O)C(C)(C)OC(C)=O)c2)c(OC)c1` (centres undefined), the melting point is 148 to 150 °C.

In turn, `CC1c2cc(C(C)(C)C)cc(C(C)(C)C)c2OP(OP2Oc3c(cc(C(C)(C)C)cc3C(C)(C)C)C(C)c3cc(C(C)(C)C)cc(C(C)(C)C)c3O2)Oc2c1cc(C(C)(C)C)cc2C(C)(C)C` (centres undefined) came in with a melting point of 281 to 285 °C.

For `O=C1c2cc(Sc3ccc(Cl)cc3)c(Sc3ccc(Cl)cc3)cc2C(=O)c2c1c(O)c1cc(Sc3ccc(Cl)cc3)c(Sc3ccc(Cl)cc3)cc1c2O`, the melting point was over 300 °C.

Regarding `CCCCCCCCCCCCCC(=O)NC1C(OCC(=O)O)OC(COC2OC(CO)C(OP(=O)(O)O)C(OC(=O)CNC(=O)CCCCCCCCCCC)C2NC(=O)CCCCCCCCCCCCC)C(O)C1OC(=O)CCCCCCCCCCCCC` (centres undefined), the melting point fell in the range of 150 to 155 °C.

With `COc1cc(OC)c(/C=C/C(c2ccc(OC)c(NC(=O)C(F)(F)F)c2)S(=O)(=O)C(/C=C/c2c(OC)cc(OC)cc2OC)c2ccc(OC)c(NC(=O)C(F)(F)F)c2)c(OC)c1` (centres undefined), the melting point lay within 179 to 180 °C.

As for `CCCCCCCCCCCCCC(=O)Nc1ccc(Cl)c(NC2=NN(c3c(Cl)cc(Cl)cc3Cl)C(=O)C2SCCCCOc2cccc(C)c2)c1` (centres undefined), the melting point lay within 123 to 124 °C.

As for `[C-]#[N+]CCC(O)COc1ccc(C(C)(C)C)cc1` (centres undefined), the melting point lay in the range of 69 to 72 °C.

With `CCc1nc(OC)c(NC(=O)N2CCN(c3cc(OC)cc(OC)c3)CC2)cc1C(=O)NC(C)C(=O)Nc1cc(CO)cc(Nc2c3ccccc3nc3ccccc23)c1` (centres undefined), the melting point is 231 to 233 °C.

In turn, `[C-]#[N+]c1c(C)cccc1C(C)(C)C` came in with a melting point of 60 to 62 °C.

As for `CCC(C)C1NC(=O)C(NC(=O)C(CC(C)C)NC)C(C)OC(=O)C(Cc2ccc(OC)cc2)N(C)C(=O)C2CCCN2C(=O)C(CC(C)C)NC(=O)C(C)C(O)C(C(C)C)OC(=O)CC1O` (centres undefined) (H-[NMeL]T[X7]LP[NMeY](Me); ester 2-C; configuration not given here), the melting point was 124 to 127 °C.

Take `C=CCC1C=C(C)CC(C)CC(OC)C2OC(O)(C(C)CC2OC)C(O)C(=O)N2CCCCC2C(=O)OC(C(C)=CC2CCC(O)C(OC)C2)C(C)C(O)CC1O` (centres undefined): the melting point was 130 to 150 °C.

`CS(=N)(=O)c1ccc(Nc2ncc(Br)c(Cl)n2)cc1` (racemic) came in with a melting point of 170 to 173 °C.

`C=CCNc1nc(NC(C)(C)CC(C)(C)C)nc(N(CCCCCCN(c2nc(NCC=C)nc(NC(C)(C)CC(C)(C)C)n2)C2CC(C)(C)NC(C)(C)C2)C2CC(C)(C)NC(C)(C)C2)n1` returned a melting point of 160 to 162 °C.

`Cc1ccc2cccc(OCc3c(Cl)ccc(S(=O)(=O)N4CCC[C@H]4C(=O)NC4CCN(C(=O)CCN(C=NC(=O)OC(C)(C)C)NC(=O)OC(C)(C)C)CC4)c3Cl)c2n1` came in with a melting point of 112 °C.

In turn, `O=S(=O)(C(/C=C/c1c(F)c(F)c(F)c(F)c1F)c1ccc(I)cc1)C(/C=C/c1c(F)c(F)c(F)c(F)c1F)c1ccc(I)cc1` (centres undefined) had a melting point of 178 to 181 °C.

Consider `O=C(OCCCCCCOC1CCCCO1)c1ccc(Oc2c3c(c(Oc4ccc(C(=O)OCCCCCCOC5CCCCO5)cc4)c4ccccc24)C(=O)c2ccccc2C3=O)cc1` (centres undefined), for which the melting point lay in the range of 114 to 117 °C.

In turn, `COc1ccc(C(/C=C/c2cc(I)c(OC)c(OC)c2)S(=O)(=O)C(/C=C/c2cc(I)c(OC)c(OC)c2)c2ccc(OC)cc2)cc1` (centres undefined) displayed a melting point of 160 to 161 °C.

`CCCCCCCCCCCCCCCCCC(=O)OCC(COC(=O)C(N)Cc1ccc(N(CCCl)CCCl)cc1)OC(=O)CCCCCCCCCCCCCCCCC` (centres undefined) gave a melting point of 82 to 83 °C.

Molecule `NC(=O)c1cnn(-c2ncc(C(F)(F)F)cc2Cl)c1NC(=O)C1(F)CC1` yielded a melting point of 204 °C.

In turn, `Cc1ccc(S(=O)(=O)N2CCN(S(=O)(=O)c3ccc(C)cc3)CC(Cc3ccc(O)cc3)N(S(=O)(=O)c3ccc(C)cc3)N(S(=O)(=O)c3ccc(C)cc3)CC2)cc1` (centres undefined) registered a melting point of 192 to 193 °C.

As to `CC[C@H](C)CNC(=O)[C@@H](C[C@H](O)[C@H](CC1CCCCC1)NC(=O)[C@H](Cc1cscn1)NC(=O)[C@@H](CC(=O)N1CCOCC1)Cc1cccc2ccccc12)C(C)(C)O`, the melting point was 102 to 105 °C.

For the molecule `CN(C(=O)Cc1c(-c2ccccc2)c2ccccc2c(=O)n1C)c1cc(C(F)(F)F)cc(C(F)(F)F)c1`, the melting point was 193 to 194 °C.

As for `Cc1c(SCCN2CCOCC2)ccnc1CSc1nc2ccccc2n1CC(=O)N(C)C`, the melting point lay within 178 to 180 °C.

Molecule `FC(F)(F)C(F)(F)C(F)(F)C(F)(F)C(F)(F)C(F)(F)CCc1ccc(P(c2ccc(CCC(F)(F)C(F)(F)C(F)(F)C(F)(F)C(F)(F)C(F)(F)F)cc2)c2ccc(CCC(F)(F)C(F)(F)C(F)(F)C(F)(F)C(F)(F)C(F)(F)F)cc2)cc1` gave a melting point of 49.9 to 52.4 °C.

In the case of `CCCCc1c(CC[Si](Cl)(Cl)Cl)c(CC[Si](Cl)(Cl)Cl)c(CC[Si](Cl)(Cl)Cl)c(CC[Si](Cl)(Cl)Cl)c1CC[Si](Cl)(Cl)Cl`, the melting point is 228 to 235 °C.

In the case of `CC(=O)OC1C(O)C(C)OC(OC2C(OC(=O)C3CCC4C(C3)OC3(CC(OC(=O)C=Cc5ccccc5)C(C)CO3)C43CO3)OC(C)C(O)C2OC(C)=O)C1O` (centres undefined), the melting point lay in the range of 125 to 127 °C.

The molecule `O=c1c(CCCc2cccnc2)cc2cccnc2n1-c1cccc([N+](=O)[O-])c1` yielded a melting point of 172 to 173 °C.

The molecule `Cc1cccc(-c2sc(N)nc2-c2ccnc(-c3ccc(CN4CCOCC4)cc3)c2)n1` showed a melting point of 236 °C.

Take `O=C1COc2cc3c(cc2O1)C1(CO3)CN(Cc2cnccn2)c2ccccc21` (centres undefined): the melting point lay in the range of 216 to 218 °C.

As for `NCC1Cc2cc(F)cc(-c3ccoc3)c2O1` (centres undefined), the melting point fell in the range of 236 to 239 °C.

For `COc1ccc(C(=CC2(C=C(c3ccc(OC)cc3)c3ccc(N4CCCC4)cc3)OC(=O)c3c(Cl)c(Cl)c(Cl)c(Cl)c32)c2ccc(N3CCCC3)cc2)cc1` (centres undefined), the melting point was 159 to 161 °C.

The molecule `C=CCOc1ccc(C[C@H](NC(=O)OC(C)(C)C)C(=O)N[C@H](C(=O)OC)C(C)C)cc1` yielded a melting point of 74 to 76 °C.

As to `[C-]#[N+]CC(=O)N(c1ccccc1)C(C)C`, the melting point is 80 to 82 °C.

In the case of `CC(=O)N(CC(CO)(CO)CN(Oc1c(I)c(C(=O)N(CCO)CCO)c(I)c(C(=O)N(CCO)CCO)c1I)C(C)=O)Oc1c(I)c(C(=O)N(CCO)CCO)c(I)c(C(=O)N(CCO)CCO)c1I`, the melting point is 198 °C.
